Results from US20230097883A1, “ERGOTHIONEINE PET COMPOUNDS AND METHODS OF USE THEREOF” (VANDERBILT UNIVERSITY, priority 2021, published 2023).

Columns and labels:
Abeta = assay: [11C]PIB PET imaging of Abeta levels after ERGO treatment; type: in vivo, mouse
Procedure: To address our primary question whether longitudinal consumption of ERGO as a potent antioxidant benefit the brain, three cohorts of animals (n=12 non-treated WT control, n=12 non-treated 5XFAD, and n=18 ERGO-treated 5XFAD) were used (FIG. 3.2A). Starting at the age of 8 weeks, the animals were treated with high doses of ERGO solution (25-50 mg/Kg) formulated in double distilled (dd) water via oral gavage three times a week over the course of eight weeks. To reduce bias in the behavioral experiments with regard to the potential stress during gavage treatment, non-treated animals underwent the identical gavage process with the vehicle, water, only. The efficacy of the therapy was evaluated by behavioral testing, followed by three different non-invasive PET imaging sessions to assess biomarkers related to AD pathology. […]
Non-invasive, in vivo, and robust assessment of Abeta levels in the brains of treated and non-treated 5XFAD mice were performed using the [^11C]PIB PET probe, the chemical structure of which has been described elsewhere. […] We co-registered the PET/CT image to an MRI template for quantitative PET analysis of regional uptake in the brain. […]

oxidative stress = assay: Dynamic microPET uptake and retention of [11C]ERGO in brains of 5XFAD versus WT mice; type: in vivo, mouse; conditions: 10-month-old, n=4, 14.8 MBq in 0.1 mL via tail vein
Procedure: Dynamic uptake and retention of [^11C]ERGO radioligand. Two cohorts of age-matched mice (10-month-old, n=4, each), including 5XFAD and WT animals, were injected with a consistent amount of 14.8 MBq of [^11C]ERGO in 0.1 mL via the tail vein prior to acquiring dynamic imaging. […] In this work, we decided to run 20-min dynamic scans to test, as a proof-of-concept, whether the affinity of ERGO for radicals and/or metals, which are integrated in or very closely associated with Abeta aggregates, would trap the probe. […] The mean percent of ID/g in the brains of 5XFAD mice (n=4) were 0.81±0.09, 0.72±0.09, 0.72±0.10, 0.71±0.12, 0.72±0.08, 0.83±0.10 for cortex, hippocampus, striatum, thalamus, cerebellum and whole brain, respectively, whereas for WT mice (n=4), the values were 0.52±0.13, 0.47±0.18, 0.47±0.15, 0.42±0.18, 0.51±0.13, 0.55±0.14. […] 5XFAD brains are associated with high levels of GFAP and IBA1 expression. After PET/CT imaging, animals underwent through the cardiac perfusion process, and the brains were embedded in OCT solution for micro-sectioning. […] The hippocampal regions of 5XFAD mice, including the dentate gyrus (DG), Cornu ammonis (CA) and the surrounding regions are populated with astrocytes, which were detected and quantified by immunostaining using anti-GFAP antibody. […] Quantitatively, about 2-fold higher levels of this inflammatory marker is found in 5XFAD versus control mice (*p<0.05). In a similar observation, 5XFAD mouse brains have greater numbers of IBA1-positive activated microglia (arrows) compared to WT counterparts.
Dynamic PET imaging. The dynamic acquisition was divided into twelve 5 sec frames, four 60 sec frames, five 120 sec frames, three 5 min frames, and six 10 min scans. The data from all possible lines of response (LOR) were saved in the list mode raw data format. The raw data were then binned into 3D sinograms with a span of 3 and ring difference of 47. The images were reconstructed into transaxial slices (128×128×159) with voxel sizes of 0.0815×0.0815×0.0796 cm^3, using the MAP algorithm with 16 subsets, 4 iterations, and a beta of 0.0468. For anatomical co-registration, immediately following the PET scans, the mice received a CT scan in a NanoSPECT/CT (Mediso, Wash. D.C.) at an X-ray beam intensity of 90 mAs and x-ray peak voltage of 45 kVp. The CT images were reconstructed into 170×170×186 voxels at a voxel size of 0.4×0.4×0.4 mm^3. The PET/CT images were uploaded into Amide software (www.sourceforge.com), co-registered to an MRI template made in-house, and volumetric regions-of-interest were drawn around the cortex, hippocampus, striatum, thalamus, and cerebellum in addition to the whole brain. The PET images were normalized to the injected dose, and the time-activity-curves (TACs) of the mean activity within the ROIs were estimated for the entire duration of the scans.

| Compound | [11C]PIB PET signal in brain (Abeta; ERGO-treated 5XFAD, 4-month-old, n=7, ~15 MBq [11C]PIB) | [11C]PIB % ID/g higher in non-treated 5XFAD compared to treated counterparts, every brain subregion (Abeta; non-treated n=5 versus ERGO-treated n=7 5XFAD mice) | mean percent of ID/g, cerebellum (oxidative stress; 5XFAD mice) | mean percent of ID/g, cortex (oxidative stress; 5XFAD mice) | mean percent of ID/g, hippocampus (oxidative stress; 5XFAD mice) | mean percent of ID/g, striatum (oxidative stress; 5XFAD mice) | mean percent of ID/g, thalamus (oxidative stress; 5XFAD mice) | mean percent of ID/g, whole brain (oxidative stress; 5XFAD mice) | mean percent of ID/g, cerebellum (oxidative stress; WT mice) | mean percent of ID/g, cortex (oxidative stress; WT mice) | mean percent of ID/g, hippocampus (oxidative stress; WT mice) | mean percent of ID/g, striatum (oxidative stress; WT mice) | mean percent of ID/g, thalamus (oxidative stress; WT mice) | mean percent of ID/g, whole brain (oxidative stress; WT mice) |
| --- | --- | --- | --- | --- | --- | --- | --- | --- | --- | --- | --- | --- | --- | --- |
| C[N+](C)(C)[C@@H](Cc1c[nH]c(=S)[nH]1)C(=O)[O-] [ERGO, L-ergothioneine] | very weak, and resembled the background signal found in WT mice | 30-50% | – | – | – | – | – | – | – | – | – | – | – | – |
| C[N+](C)([11CH3])[C@@H](Cc1c[nH]c(=S)[nH]1)C(=O)[O-] [[^11C]ERGO] | – | – | 0.72±0.08% of ID/g | 0.81±0.09% of ID/g | 0.72±0.09% of ID/g | 0.72±0.10% of ID/g | 0.71±0.12% of ID/g | 0.83±0.10% of ID/g | 0.51±0.13% of ID/g | 0.52±0.13% of ID/g | 0.47±0.18% of ID/g | 0.47±0.15% of ID/g | 0.42±0.18% of ID/g | 0.55±0.14% of ID/g |
